Test results taken from patent publication US11974571B1, “3-5-dinitro-N-(pyrimidin-2-ylcarbamothioyl)benzamide as an eco-friendly insecticidal agent against Spodoptera littoralis (boisd.)” (KING FAISAL UNIVERSITY, priority 2023, dated 2024).
Values after ≈ are worked out from the molar mass of the structure shown. Where two headings read alike, the source gives them in different places.

System: Spodoptera littoralis
Test: Insecticidal bioassay screening (castor leaf dip), laboratory strain of cotton leafworm
Type: in vivo
Conditions: for Toxicity index %: 72 hrs, Diflubenzuron's LC50 / the compound's LC50 × 100; for LC50: Spodoptera littoralis, foliar, 72 h
Description: Five concentrations (200, 100, 50, 25, 12.5 ppm) were designed for this synthetic compound and the reference Diflubenzuron compound as the dynamic ingredients based on mg/L via diluting the commercial formulation.
[…] Larvae of the second and fourth instars of each checked strain are prepared with treated leaves in gauze-covered glass containers for 72 hrs. An untreated control is made in which leaves are dipped in triton x-100 and distilled water only. Then the preserved leaves were removed & fresh, untreated leaves were provided for 72 hours. Three replicates (10 larvae each) were checked for each concentration. Daily inspection was carried out for all treatments and mortality percentages were recorded 3 days (72 hours) after treatment. The average mortality percentage was corrected employing Abbott's formula. The corrected mortality rate for each of the previously synthesized compounds is statistically calculated according to Finney (1970). Through this rate, the corresponding concentration test lines (LDP lines) are assessed.

[1] = 2nd instar larvae, laboratory strain, after 72 hrs of treatment
[2] = 4th instar larvae, laboratory strain, after 72 hrs of treatment
[3] = read-out: LC50 (mg/L) at 95%, 2nd instar larvae, laboratory strain, after 72 hrs of treatment
[4] = read-out: LC50 (mg/L) at 95%, 4th instar larvae, laboratory strain, after 72 hrs of treatment

SMILES | Toxicity index % (2nd instar larvae) [%] | LC50 (mg/L) at 95% [1] | LC90 (mg/L) at 95% [1] [mg/L] | Toxicity index % (4th instar larvae) [%] | LC90 (mg/L) at 95% [2] [mg/L] | LC50 [3] [mg/L] | LC50 [4] [mg/L]
O=C(NC(=S)Nc1ncccn1)c1cc([N+](=O)[O-])cc([N+](=O)[O-])c1 [Compound 1, 3,5-dinitro-N-(pyrimidin-2-ylcarbamothioyl)benzamide] | 23.7 | about 190.0 mg/L | 1713.2 (≈ 4920 µM) | 33.4 | 4020.4 (≈ 11500 µM) | 190 (≈ 546 µM) | ~430 (≈ 1240 µM)
O=C(NC(=O)c1c(F)cccc1F)Nc1ccc(Cl)cc1 [Diflubenzuron, reference compound] | 100 |  | 520.0 (≈ 1670 µM) | 100 | 1540.5 (≈ 4960 µM) | 45.2 (≈ 145 µM) | 144 (≈ 464 µM)
